In one experiment the target is T1, HsNMT1 (Homo sapiens, UniProt P30419).
T1 sequence (P30419 1-496): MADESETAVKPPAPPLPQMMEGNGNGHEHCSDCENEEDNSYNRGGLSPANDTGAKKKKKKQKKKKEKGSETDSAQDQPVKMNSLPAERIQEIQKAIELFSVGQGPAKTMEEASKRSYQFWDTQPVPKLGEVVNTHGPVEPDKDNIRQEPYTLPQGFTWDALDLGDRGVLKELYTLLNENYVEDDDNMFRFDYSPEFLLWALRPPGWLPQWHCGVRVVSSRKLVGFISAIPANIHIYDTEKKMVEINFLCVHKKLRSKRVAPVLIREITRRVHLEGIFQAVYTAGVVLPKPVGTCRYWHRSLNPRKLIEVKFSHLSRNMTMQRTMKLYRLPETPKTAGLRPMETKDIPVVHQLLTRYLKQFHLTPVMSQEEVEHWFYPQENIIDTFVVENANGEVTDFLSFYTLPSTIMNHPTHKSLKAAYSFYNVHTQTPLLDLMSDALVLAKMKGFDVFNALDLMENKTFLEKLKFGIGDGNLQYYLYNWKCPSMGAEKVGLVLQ
Briefly: Fluorogenic NMT inhibition assay, HsNMT1. Type of experiment: biochemical, H. sapiens. The conditions noted are these: for IC50: mean of duplicate or triplicate experiments. An excerpt:
(§1) 2-Methylimidazolyl analogues were synthesized building on the hypothesis that 2-methylimidazole (pK a ∼ 7.9)[18] is a reasonable mimetic for N-terminal Gly in the peptide substrate (pK a ∼ 8.0).[19] To cover a range of basicity, imidazolyl (pK a ∼ 7.0) and amine analogues (pK a ∼ 10.0) were also synthesized, each exploring a range of chain lengths (n) (Table 1). To probe versatility at the C-terminus, primary amides, carboxylic acids, 2-cyclohexylethyl and 2-(1-cyclohexenyl)ethyl amides were incorporated. Using a previously reported fluorogenic assay,[20] inhibitors were tested against the parasitic enzymes and HsNMT1 in order to explore their selectivity against a relevant host enzyme.

The next experiment concerns LdNMT. Put plainly: Fluorogenic NMT inhibition assay, LdNMT. Type of experiment: biochemical, L. donovani. The conditions noted are these: for IC50: recombinant enzyme, mean of duplicate or triplicate experiments.
Source text: as §1, with “enzyme. […] Further reduction of the chain length (11 and 12, n = 8 and 7, respectively) led to loss of detectable activity against Plasmodium NMTs and significant loss of activity against LdNMT and HsNMT1.” for “enzyme.”

Another experiment has as its target T2, PvNMT (Plasmodium vivax, UniProt A5K1A2).
T2 sequence (A5K1A2 1-410): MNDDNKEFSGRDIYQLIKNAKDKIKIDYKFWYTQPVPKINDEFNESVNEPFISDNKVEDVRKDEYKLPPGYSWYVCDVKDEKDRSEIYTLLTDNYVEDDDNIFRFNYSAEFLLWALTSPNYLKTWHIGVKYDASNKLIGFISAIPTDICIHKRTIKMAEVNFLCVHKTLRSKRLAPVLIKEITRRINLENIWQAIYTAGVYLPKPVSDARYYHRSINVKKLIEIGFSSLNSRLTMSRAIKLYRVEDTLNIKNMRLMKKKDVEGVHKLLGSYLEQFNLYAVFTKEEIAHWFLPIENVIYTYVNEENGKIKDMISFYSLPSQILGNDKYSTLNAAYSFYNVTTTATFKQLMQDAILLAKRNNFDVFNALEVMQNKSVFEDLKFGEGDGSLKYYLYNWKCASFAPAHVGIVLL
Put plainly: Fluorogenic NMT inhibition assay, PvNMT. Type of experiment: biochemical. The conditions noted are these: recombinant enzyme; mean of duplicate or triplicate experiments.
Source text: as §1, with “enzyme. […] Further reduction of the chain length (11 and 12, n = 8 and 7, respectively) led to loss of detectable activity against Plasmodium NMTs and significant loss of activity against LdNMT and HsNMT1.” for “enzyme.”

Another experiment deals with T3, PfNMT (Plasmodium falciparum, UniProt Q9U419).
T3 sequence (Q9U419 1-410): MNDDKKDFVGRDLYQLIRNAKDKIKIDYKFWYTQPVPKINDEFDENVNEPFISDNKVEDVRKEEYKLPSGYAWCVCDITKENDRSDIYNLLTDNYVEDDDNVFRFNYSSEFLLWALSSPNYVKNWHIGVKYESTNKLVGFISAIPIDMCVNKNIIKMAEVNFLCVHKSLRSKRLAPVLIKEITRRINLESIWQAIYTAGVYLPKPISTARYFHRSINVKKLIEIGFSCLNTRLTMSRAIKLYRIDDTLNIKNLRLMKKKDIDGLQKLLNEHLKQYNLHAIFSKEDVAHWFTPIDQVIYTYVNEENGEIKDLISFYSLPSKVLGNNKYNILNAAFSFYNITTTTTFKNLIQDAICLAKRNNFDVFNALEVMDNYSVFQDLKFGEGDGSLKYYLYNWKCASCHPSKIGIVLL
Put plainly: Fluorogenic NMT inhibition assay, PfNMT. Type of experiment: biochemical. Particulars: recombinant enzyme; mean of duplicate or triplicate experiments.
Source text: as §1, with “enzyme. […] Further reduction of the chain length (11 and 12, n = 8 and 7, respectively) led to loss of detectable activity against Plasmodium NMTs and significant loss of activity against LdNMT and HsNMT1.” for “enzyme.”

[1] abbreviates: hydroxyl substituted for the N-terminal amine.

The results in this text go back to paper PMC4224572, “Peptidomimetic inhibitors of N-myristoyltransferase from human malaria and leishmaniasis parasites” (Organic & Biomolecular Chemistry, 2014).

Square brackets hold non-standard residues; d marks the D form. Peptide text beside a SMILES is read from it. Aun = NCCCCCCCCCCC(=O)O; Aoc = NCCCCCCCC(=O)O Where only a bound is given, the exact number is not on record here.

As a reminder, the IC50 is the concentration at which inhibition is half-maximal. Consider `NCCCC[C@H](NC(=O)[C@H](CO)NC(=O)CCCCCCCCCCn1ccnc1)C(=O)NCCC1CCCCC1` [Compound 1], for which the IC50 is 47.6 ± 3.8 µM against HsNMT1, 25.8 ± 8.2 µM with LdNMT, over 100 µM at PvNMT and over 100 µM at PfNMT.

Take `NCCCC[C@H](NC(=O)[C@H](CO)NC(=O)CCCCCCCCCn1ccnc1)C(=O)NCCC1CCCCC1` [Compound 2]: the IC50 against HsNMT1 is 44 ± 7.1 µM; in the experiment with LdNMT, 10.6 ± 1.6 µM; at PvNMT it was over 100 µM; on PfNMT it was over 100 µM.

Consider `NCCCC[C@H](NC(=O)[C@H](CO)NC(=O)CCCCCCCCn1ccnc1)C(=O)NCCC1CCCCC1` [Compound 3], for which the IC50 against HsNMT1 was over 100 µM; with LdNMT, 16.7 ± 2.5 µM; at PvNMT it was over 100 µM; at PfNMT, over 100 µM.

On to `NCCCC[C@H](NC(=O)[C@H](CO)NC(=O)CCCCCCCn1ccnc1)C(=O)NCCC1CCCCC1` [Compound 4], for which the IC50 against HsNMT1 is over 100 µM; in the experiment on LdNMT, 34.8 ± 3.7 µM; at PvNMT, over 100 µM; on PfNMT, over 100 µM.

Take `Cc1nccn1CCCCCCCCCCC(=O)N[C@@H](CO)C(=O)N[C@@H](CCCCN)C(=O)NCCC1CCCCC1` [Compound 5]: the IC50 at HsNMT1 is 21.8 ± 0.8 µM; in the experiment with LdNMT, over 100 µM; at PvNMT, over 100 µM; at PfNMT it was over 100 µM.

For the compound `Cc1nccn1CCCCCCCCCC(=O)N[C@@H](CO)C(=O)N[C@@H](CCCCN)C(=O)NCCC1CCCCC1` [Compound 6], the half-maximal inhibitory concentration (IC50) was 7.92 ± 0.83 µM at HsNMT1, 0.63 ± 0.01 µM with LdNMT, over 100 µM on PvNMT and over 100 µM on PfNMT.

For the compound `Cc1nccn1CCCCCCCCC(=O)N[C@@H](CO)C(=O)N[C@@H](CCCCN)C(=O)NCCC1CCCCC1` [Compound 7], the IC50 at HsNMT1 is 49.9 ± 10.6 µM; in the experiment on LdNMT, 3.42 ± 0.34 µM; on PvNMT, over 100 µM; at PfNMT, over 100 µM.

In the case of `Cc1nccn1CCCCCCCC(=O)N[C@@H](CO)C(=O)N[C@@H](CCCCN)C(=O)NCCC1CCCCC1` [Compound 8], the IC50 was 82.2 ± 14 µM at HsNMT1, 1.46 ± 0.22 µM with LdNMT, over 100 µM on PvNMT and over 100 µM on PfNMT.

As for `NCCCCCCCCCCC(=O)N[C@@H](CO)C(=O)N[C@@H](CCCCN)C(=O)NCCC1CCCCC1` [Compound 9], the IC50 is 0.14 ± 0.01 µM in the experiment with LdNMT, 1.04 ± 0.01 µM on PvNMT and over 100 µM at PfNMT.

Consider `NCCCCCCCCC(=O)N[C@@H](CO)C(=O)N[C@@H](CCCCN)C(=O)NCCC1CCCCC1` [Compound 11], for which the IC50 against HsNMT1 was 7.68 ± 0.86 µM; with LdNMT, 2.01 ± 0.3 µM; on PvNMT it was over 100 µM; at PfNMT, over 100 µM.

For `NCCCCCCCC(=O)N[C@@H](CO)C(=O)N[C@@H](CCCCN)C(=O)NCCC1CCCCC1` [Compound 12], the IC50 at HsNMT1 was 6.75 ± 0.45 µM; in the experiment on LdNMT it was 1.39 ± 0.18 µM; at PvNMT, over 100 µM; at PfNMT, over 100 µM.

In the case of `CC(=O)N[C@@H](CO)C(=O)N[C@@H](CCCCN)C(=O)NCCC1CCCCC1` [Compound 14], the IC50 against HsNMT1, in the experiment on LdNMT, at PvNMT and at PfNMT was over 100 µM throughout.

Take `NCCCCCCCCCCC(=O)N[C@@H](CO)C(=O)N[C@@H](CCCCN)C(=O)NCCC1=CCCCC1` [Compound 15]: the IC50 against HsNMT1 was 2.3 ± 0.14 µM; with LdNMT, 6.6 ± 1.28 µM; at PvNMT it was 12.9 ± 1.07 µM; on PfNMT, over 100 µM.

For `NCCCCCCCCCC(=O)N[C@@H](CO)C(=O)N[C@@H](CCCCN)C(=O)NCCC1=CCCCC1` [Compound 16], the IC50 on HsNMT1 was 0.67 ± 0.04 µM; in the experiment with LdNMT, 0.44 ± 0.04 µM; on PvNMT it was 3.55 ± 0.38 µM; on PfNMT, over 100 µM.

For the compound `NCCCC[C@H](NC(=O)[C@H](CO)NC(=O)CCCCCCCCCCn1ccnc1)C(=O)NCCC1=CCCCC1` [Compound 17], the IC50 against HsNMT1, with LdNMT, on PvNMT and at PfNMT was over 100 µM each time.

Turning to `NCCCC[C@H](NC(=O)[C@H](CO)NC(=O)CCCCCCCCCn1ccnc1)C(=O)NCCC1=CCCCC1` [Compound 18], the 50% inhibitory concentration (IC50) against HsNMT1, in the experiment on LdNMT, on PvNMT and on PfNMT was over 100 µM each time.

On to `Cc1nccn1CCCCCCCCCCC(=O)N[C@@H](CO)C(=O)N[C@@H](CCCCN)C(=O)NCCC1=CCCCC1` [Compound 19], for which the half-maximal inhibitory concentration (IC50) against HsNMT1, in the experiment with LdNMT, at PvNMT and on PfNMT was over 100 µM in each case.

Regarding `Cc1nccn1CCCCCCCCCC(=O)N[C@@H](CO)C(=O)N[C@@H](CCCCN)C(=O)NCCC1=CCCCC1` [Compound 20], the IC50 against HsNMT1, at PvNMT and on PfNMT was over 100 µM each time.

Consider `NCCCCCCCCCCC(=O)N[C@@H](CO)C(=O)N[C@@H](CCCCN)C(N)=O` [Compound 21] (H-[Aun]-Ser-Lys-NH2), for which the IC50 at HsNMT1 is 5.4 ± 0.41 µM; with LdNMT it was 13.3 ± 2 µM; on PvNMT, over 100 µM; at PfNMT, over 100 µM.

Regarding `NCCCCCCCCCC(=O)N[C@@H](CO)C(=O)N[C@@H](CCCCN)C(N)=O` [Compound 22], the IC50 is 1.36 ± 0.29 µM on HsNMT1, 1.36 ± 0.2 µM in the experiment on LdNMT, 22.9 ± 3.5 µM on PvNMT and over 100 µM on PfNMT.

Turning to `NCCCCCCCCC(=O)N[C@@H](CO)C(=O)N[C@@H](CCCCN)C(N)=O` [Compound 23], the IC50 against HsNMT1 is 33.1 ± 2.5 µM; with LdNMT, 27.1 ± 2.6 µM; at PvNMT, over 100 µM; on PfNMT, over 100 µM.

As to `NCCCCCCCC(=O)N[C@@H](CO)C(=O)N[C@@H](CCCCN)C(N)=O` [Compound 24] (H-[Aoc]-Ser-Lys-NH2), the IC50 against HsNMT1 is over 100 µM; in the experiment on LdNMT it was 61.9 ± 4.7 µM; on PvNMT it was over 100 µM; on PfNMT it was over 100 µM.

In the case of `NCCCCCCCCCCC(=O)N[C@@H](CO)C(=O)N[C@@H](CCCCN)C(=O)O` [Compound 25] (H-[Aun]-Ser-Lys-OH), the IC50 was 39.2 ± 2 µM at HsNMT1, 86.7 ± 10.4 µM in the experiment with LdNMT, over 100 µM on PvNMT and over 100 µM at PfNMT.

As to `NCCCCCCCCCC(=O)N[C@@H](CO)C(=O)N[C@@H](CCCCN)C(=O)O` [Compound 26], the IC50 is 92.1 ± 17.6 µM on HsNMT1, over 100 µM in the experiment with LdNMT, over 100 µM on PvNMT and over 100 µM on PfNMT.

Take `NCCCC[C@H](NC(=O)[C@H](CO)NC(=O)CCCCCCCCCO)C(=O)NCCC1CCCCC1` [Compound 46]: the “loss in activity, Human NMT” value on HsNMT1 (setting [1]) is on record as 1000 folds. For the same compound, the “loss in activity, Leishmania NMT” value in the experiment with LdNMT (setting [1]) is recorded as over 100 folds.
